Source: patent US20240091149A1, “COMPOSITIONS AND METHODS FOR IMPROVING GASTROINTESTINAL ABSORPTION OF ELECTROLYTES” (IGH NATURALS, INC., priority 2020, published 2024)

Test system: HT-29-MTX intestinal cells
Assay: IL-10 secretion by intestinal cells
Assay type: cell-based
Settings: cells treated with cisplatin alone; FIG. 3
Text: IL-10 secretion peaked between 24-48 hrs and preceded mucin secretion (72-96 hr).

N.N.[Cl][Pt][Cl] [cisplatin]
IL-10 secretion: secreted more IL-10
